Read-outs that look alike come from different tables or passages of the source.
Legend:
[1] = molecular target: SARS-CoV-2 3CLP (Severe acute respiratory syndrome coronavirus 2, UniProt P0DTD1); assay: SARS-CoV-2 3CLP inhibition, FRET-based cleavage assay; type: biochemical; conditions: 100 μM substrate, 37° C., 10 min incubation, pH 7.8
[2] = tested on: SARS-CoV-2; assay: SARS-CoV-2 in vitro plaque reduction assay in Vero E6 cells; type: cell-based; conditions: Severe acute respiratory syndrome coronavirus 2, Vero C1008, MOI 0.0001 pfu/cell, plaques counted after 48 h, >5 μM = did not reduce plaque numbers by half at 10 μM, read-out: SARS-CoV-2 Antiviral EC50
[3] = 80 nM SARS-CoV-2 3CLP, read-out: 3CL Protease IC50

Row | SMILES | IC50 [1, 3] | EC50 [2] | IC50 ([1]; 3CL Protease IC50, 80 nM SARS-CoV-2 3CLP)
1 | COc1cccc2[nH]c(C(=O)N[C@@H](CC(C)C)C(=O)N[C@@H](C[C@@H]3CCCNC3=O)C(=O)COc3ccc(S(C)(=O)=O)cc3)cc12 [Compound 30, N-[(2S)-1-({(2S)-4-[4-(methanesulfonyl)phenoxy]-3-oxo-1-[(3S)-2-oxopiperidin-3-yl]butan-2-yl}amino)-4-methyl-1-oxopentan-2-yl]-4-methoxy-1H-indole-2-carboxamide] | 53 nM | > 5 µM | 
2 | CC(C)C[C@H](NS(=O)(=O)c1cccc2c1OCCO2)C(=O)N[C@H](C#N)C[C@@H]1CCCNC1=O [Compound 82, N-{(1S)-1-cyano-2-[(3S)-2-oxopiperidin-3-yl]ethyl}-N^2-(2,3-dihydro-1,4-benzodioxine-5-sulfonyl)-L-leucinamide] | 2400 nM | > 5 µM | 
3 | CC(C)C[C@H](NS(=O)(=O)N1CCCCC1)C(=O)N[C@H](C#N)C[C@@H]1CCCNC1=O [Compound 83, N-{(1S)-1-cyano-2-[(3S)-2-oxopiperidin-3-yl]ethyl}-N^2-(piperidine-1-sulfonyl)-L-leucinamide] | 4500 nM | > 5 µM | 
4 | COc1cccc2[nH]c(C(=O)N[C@@H](CC(C)C)C(=O)N[C@@H](C[C@@H]3CCCNC3=O)C(=O)COC(=O)C3(C(F)(F)F)CCCCC3)cc12 [Compound 20, (3S)-3-{[N-(4-methoxy-1H-indole-2-carbonyl)-L-leucyl]amino}-2-oxo-4-[(3S)-2-oxopiperidin-3-yl]butyl 1-(trifluoromethyl)cyclohexane-1-carboxylate] | 86 nM | 0.71 µM | 
5 | Cc1ccc(S(=O)(=O)N[C@@H](CC(C)C)C(=O)N[C@H](C#N)C[C@@H]2CCCNC2=O)cn1 [Compound 85, N-{(1S)-1-cyano-2-[(3S)-2-oxopiperidin-3-yl]ethyl}-N^2-(6-methylpyridine-3-sulfonyl)-L-leucinamide] | 6400 nM | > 5 µM | 
6 | COc1cccc2[nH]c(C(=O)N[C@@H](CC(C)C)C(=O)N[C@@H](C[C@@H]3CCCNC3=O)C(=O)COC(=O)c3cnc(C)cc3C)cc12 [Compound 22, (3S)-3-{[N-(4-methoxy-1H-indole-2-carbonyl)-L-leucyl]amino}-2-oxo-4-[(3S)-2-oxopiperidin-3-yl]butyl 4,6-dimethylpyridine-3-carboxylate] | 17 nM | > 5 µM | 
7 | COc1cc(Cl)cc2[nH]c(C(=O)N[C@@H](CC(C)C)C(=O)N[C@H](C#N)C[C@@H]3CCCNC3=O)cc12 [Compound 68, 6-chloro-N-[(2S)-1-({(1S)-1-cyano-2-[(3S)-2-oxopiperidin-3-yl]ethyl}amino)-4-methyl-1-oxopentan-2-yl]-4-methoxy-1H-indole-2-carboxamide] | 9.1 nM | 2.2 µM | 
8 | COc1cccc2[nH]c(C(=O)N[C@@H](CC(C)C)C(=O)N[C@@H](C[C@@H]3CCCNC3=O)C(=O)COC(=O)c3cccnc3)cc12 [Compound 4, (3S)-3-{[N-(4-methoxy-1H-indole-2-carbonyl)-L-leucyl]amino}-2-oxo-4-[(3S)-2-oxopiperidin-3-yl]butyl pyridine-3-carboxylate] | 4 nM | > 5 µM | 
9 | COc1cccc2[nH]c(C(=O)N[C@@H](CC(C)C)C(=O)N[C@@H](C[C@@H]3CCCNC3=O)C(=O)COC(=O)C(C)(C)C)cc12 [Compound 1, (3S)-3-{[N-(4-methoxy-1H-indole-2-carbonyl)-L-leucyl]amino}-2-oxo-4-[(3S)-2-oxopiperidin-3-yl]butyl 2,2-dimethylpropanoate] | 64 nM | > 5 µM | 
10 | CC(C)C[C@H](NCC1CC1)C(=O)N[C@H](C#N)C[C@@H]1CCCNC1=O [Compound 77, N-{(1S)-1-cyano-2-[(3S)-2-oxopiperidin-3-yl]ethyl}-N^2-(cyclopropylmethyl)-L-leucinamide] | 17000 nM | > 5 µM | 
11 | COc1cccc2[nH]c(C(=O)N[C@@H](CC(C)C)C(=O)N[C@@H](C[C@@H]3CCCNC3=O)C(=O)COC(=O)c3c(C)nc(C)nc3C)cc12 [Compound 72, 3-{[N-(4-methoxy-1H-indole-2-carbonyl)leucyl]amino}-2-oxo-4-(2-oxopiperidin-3-yl)butyl 2,4,6-trimethylpyrimidine-5-carboxylate] | 22 nM |  | 
12 | COc1cccc2[nH]c(C(=O)N[C@@H](CC(C)C)C(=O)N[C@@H](C[C@@H]3CCCNC3=O)C(=O)COC(=O)c3ccncc3)cc12 [Compound 8, (3S)-3-{[N-(4-methoxy-1H-indole-2-carbonyl)-L-leucyl]amino}-2-oxo-4-[(3S)-2-oxopiperidin-3-yl]butyl pyridine-4-carboxylate] |  | > 5 µM | 
13 | CC(C)(C)C[C@H](NC(=O)[C@@H]1CCCN1C(=O)OCc1ccccc1)C(=O)N[C@H](C#N)C[C@@H]1CCCNC1=O [Compound 89, 1-[(benzyloxy)carbonyl]prolyl-N-{(1S)-1-cyano-2-[(3S)-2-oxopiperidin-3-yl]ethyl}-4-methyl-L-leucinamide] | 2800 nM | > 5 µM | 
14 | CC(C)(C)C[C@H](NC(=O)[C@H]1Cc2ccccc2N1)C(=O)N[C@H](C#N)C[C@@H]1CCCNC1=O [Compound 102, (2R)—N-[(2S)-1-({(1S)-1-cyano-2-[(3S)-2-oxopiperidin-3-yl]ethyl}amino)-4,4-dimethyl-1-oxopentan-2-yl]-2,3-dihydro-1H-indole-2-carboxamide] | 140 nM | > 5 µM | 
15 | CC(C)C[C@H](NC(=O)c1nc(-c2ccccc2)c[nH]1)C(=O)N[C@H](C#N)C[C@@H]1CCCNC1=O [Compound 75, N-{(1S)-1-cyano-2-[(3S)-2-oxopiperidin-3-yl]ethyl}-N^2-(4-phenyl-1H-imidazole-2-carbonyl)-L-leucinamide] | 160 nM | > 5 µM | 
16 | COc1cccc2[nH]c(C(=O)N[C@@H](CC(C)C)C(=O)N[C@@H](C[C@@H]3CCNC3=O)C(=O)COC(=O)c3c(C(F)(F)F)cc(C)nc3C)cc12 [Compound 26, (3S)-3-{[N-(4-methoxy-1H-indole-2-carbonyl)-L-leucyl]amino}-2-oxo-4-[(3S)-2-oxopyrrolidin-3-yl]butyl 2,6-dimethyl-4-(trifluoromethyl)pyridine-3-carboxylate] | 17 nM |  | 
17 | COc1cccc2[nH]c(C(=O)N[C@@H](CC(C)C)C(=O)N[C@@H](C[C@@H]3CCCNC3=O)C(=O)COC(=O)c3c(C)cc(C)nc3C)cc12 [Compound 23, (3S)-3-{[N-(4-methoxy-1H-indole-2-carbonyl)-L-leucyl]amino}-2-oxo-4-[(3S)-2-oxopiperidin-3-yl]butyl 2,4,6-trimethylpyridine-3-carboxylate] |  |  | 36 nM
18 | CC(C)C[C@H](NCC1Cc2ccccc2O1)C(=O)N[C@H](C#N)C[C@@H]1CCCNC1=O (single isomer, unassigned) [Compound 96] | 46000 nM | > 5 µM | 
19 | CC(C)C[C@H](NC(=O)[C@H]1CCCO1)C(=O)N[C@H](C#N)C[C@@H]1CCCNC1=O [Compound 80, N-{(1S)-1-cyano-2-[(3S)-2-oxopiperidin-3-yl]ethyl}-N^2-[(2R)-oxolane-2-carbonyl]-L-leucinamide] | 710 nM | > 5 µM | 
20 | COc1cccc2[nH]c(C(=O)N[C@@H](CC(C)C)C(=O)N[C@@H](C[C@@H]3CCCNC3=O)C(=O)COC(=O)c3sc(C)nc3C(F)(F)F)cc12 [Compound 21, (3S)-3-{[N-(4-methoxy-1H-indole-2-carbonyl)-L-leucyl]amino}-2-oxo-4-[(3S)-2-oxopiperidin-3-yl]butyl 2-methyl-4-(trifluoromethyl)-1,3-thiazole-5-carboxylate] | 18 nM | > 5 µM | 
21 | COc1cccc2[nH]c(C(=O)N[C@@H](CC(C)C)C(=O)N[C@@H](C[C@@H]3CCCNC3=O)C(=O)COC(=O)C3(C)COC(C)(C)OC3)cc12 [Compound 9, (3S)-3-{[N-(4-methoxy-1H-indole-2-carbonyl)-L-leucyl]amino}-2-oxo-4-[(3S)-2-oxopiperidin-3-yl]butyl 2,2,5-trimethyl-1,3-dioxane-5-carboxylate] | 55 nM | > 5 µM | 
22 | COc1cccc2oc(C(=O)N[C@@H](CC(C)(C)C)C(=O)N[C@H](C#N)C[C@@H]3CCCNC3=O)cc12 [Compound 93, N-[(2S)-1-({(1S)-1-cyano-2-[(3S)-2-oxopiperidin-3-yl]ethyl}amino)-4,4-dimethyl-1-oxopentan-2-yl]-4-methoxy-1-benzofuran-2-carboxamide] | 240 nM | > 5 µM | 
23 | N#C[C@H](C[C@@H]1CCNC1=O)NC(=O)[C@H](CC1CCCCC1)NC(=O)OCc1cccc(Cl)c1 [Compound 94, (3-chlorophenyl)methyl [(2S)-1-({(1S)-1-cyano-2-[(3S)-2-oxopyrrolidin-3-yl]ethyl}amino)-3-cyclohexyl-1-oxopropan-2-yl]carbamate] | 160 nM | > 5 µM | 
24 | COc1cccc2[nH]c(C(=O)N[C@@H](CC(C)C)C(=O)N[C@H](C#N)C[C@@H]3CCNC3=O)cc12 [Compound 24, N-[(2S)-1-({(1S)-1-cyano-2-[(3S)-2-oxopyrrolidin-3-yl]ethyl}amino)-4-methyl-1-oxopentan-2-yl]-4-methoxy-1H-indole-2-carboxamide] |  | > 5 µM | 
25 | [2H]C1([2H])CC[C@@H](C[C@@H](C#N)NC(=O)[C@H](CC(C)(C)C)NC(=O)c2cc3c(OC)cccc3[nH]2)C(=O)N1 [Compound 104, N-[(2S)-1-({(1S)-1-cyano-2-[(3S)-2-oxo(6,6-d2)piperidin-3-yl]ethyl}amino)-4,4-dimethyl-1-oxopentan-2-yl]-4-methoxy-1H-indole-2-carboxamide] |  | > 5 µM | 
26 | COc1cccc2[nH]c(C(=O)N[C@@H](CC(C)C)C(=O)N[C@@H](C[C@@H]3CCCNC3=O)C(=O)COC(=O)c3c(F)c(F)c(F)c(F)c3F)cc12 [Compound 7, (3S)-3-{[N-(4-methoxy-1H-indole-2-carbonyl)-L-leucyl]amino}-2-oxo-4-[(3S)-2-oxopiperidin-3-yl]butyl pentafluorobenzoate] |  | > 5 µM | 

From patent publication US20220204476A1, “RNA VIRUS INHIBITOR COMPOUNDS AND USES THEREOF” (The Governors of the University of Alberta, priority 2020, published 2022)
